Source: ChEMBL document CHEMBL1122778, “A mechanism for the addition of multiple moles of glutamate by folylpolyglutamate synthetase” (J Med Chem, 1984)

Assays:
[1] = target: T1, Folylpolyglutamate synthase, mitochondrial (Mus musculus) (UniProt P48760); assay: Compound was evaluated for reaction rate of compound in mouse liver Folyl-polyglutamate synthase for 1 hr at a conc of 500 uM ([3H]L-glutamate incorporated)
T1 sequence (whole entry): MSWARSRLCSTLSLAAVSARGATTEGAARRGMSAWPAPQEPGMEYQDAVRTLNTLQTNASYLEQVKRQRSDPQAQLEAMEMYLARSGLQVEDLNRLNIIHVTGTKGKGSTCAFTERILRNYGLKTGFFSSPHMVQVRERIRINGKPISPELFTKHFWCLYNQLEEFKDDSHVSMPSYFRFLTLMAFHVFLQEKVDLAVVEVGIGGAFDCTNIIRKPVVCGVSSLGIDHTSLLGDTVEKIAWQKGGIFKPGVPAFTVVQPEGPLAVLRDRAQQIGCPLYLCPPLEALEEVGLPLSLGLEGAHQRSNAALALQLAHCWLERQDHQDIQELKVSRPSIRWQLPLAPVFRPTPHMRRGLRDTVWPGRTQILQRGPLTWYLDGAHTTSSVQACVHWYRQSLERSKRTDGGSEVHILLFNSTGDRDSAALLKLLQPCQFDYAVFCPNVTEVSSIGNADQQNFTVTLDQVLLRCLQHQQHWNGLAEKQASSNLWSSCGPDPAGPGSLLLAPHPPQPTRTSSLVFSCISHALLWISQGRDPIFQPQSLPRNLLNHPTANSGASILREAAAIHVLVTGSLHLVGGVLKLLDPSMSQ

[2] = target: T1, Folylpolyglutamate synthase, mitochondrial (Mus musculus); assay: Concentration required go get half the maximal reaction with Folyl-polyglutamate synthase
[3] = target: T1, Folylpolyglutamate synthase, mitochondrial (Mus musculus); assay: Compound was evaluated for reaction rate of compound in mouse liver Folyl-polyglutamate synthase ([3H]L-glutamate incorporated)

| Compound | Reaction rate [1] | Concentration [2] | Reaction rate [3] |
| --- | --- | --- | --- |
| CN(Cc1cnc2nc(N)nc(N)c2n1)c1ccc(C(=O)NC(CCC(=O)NC(CCC(=O)O)C(=O)O)C(=O)O)cc1 (stereo not given) | 0.7 nM/h | 163 µM | – |
| CN(Cc1cnc2nc(N)nc(N)c2n1)c1ccc(C(=O)NC(CCC(=O)NC(CCC(=O)O)C(=O)O)C(=O)O)cc1.CN(Cc1cnc2nc(N)nc(N)c2n1)c1ccc(C(=O)NC(CCC(=O)O)C(=O)O)cc1 (stereo not given) | – | – | 1.23 nM/h |
| CN(Cc1cnc2nc(N)nc(N)c2n1)c1ccc(C(=O)N[C@@H](CCC(=O)O)C(=O)O)cc1 | – | 47 µM | 1.71 nM/h |
